Biological target: T1, mouse TRPM3α2 (mTRPM3) ion channel (Mus musculus, UniProt J9SQF3)
T1 construct: expressed in transfected cells; host or cells: flip-in HEK293
Test: TRPM3 ion channel driven Ca2+ uptake, Fluo-4 AM assay, PS-stimulated (mTRPM3)
Type: cell-based
Conditions: TRPM3 overexpressing flip-in HEK293 cells stimulated with Pregnenolone sulfate (PS) 50 μM, activity ranges A, B, C
How it was run: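 Flp-In HEK293 cells overexpressing mTRPM3α2 were added, in Ca²⁺-free Krebs, to wells already holding compound and 50 μM pregnenolone sulfate in Ca²⁺-containing Krebs. Fluo-4 AM fluorescence (ex 485/em 535 nm) was read immediately. Percent inhibition was computed from RFU relative to PS/vehicle wells and a positive-control inhibitor.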

T1 sequence (J9SQF3 1-1709 isoform J9SQF3-12): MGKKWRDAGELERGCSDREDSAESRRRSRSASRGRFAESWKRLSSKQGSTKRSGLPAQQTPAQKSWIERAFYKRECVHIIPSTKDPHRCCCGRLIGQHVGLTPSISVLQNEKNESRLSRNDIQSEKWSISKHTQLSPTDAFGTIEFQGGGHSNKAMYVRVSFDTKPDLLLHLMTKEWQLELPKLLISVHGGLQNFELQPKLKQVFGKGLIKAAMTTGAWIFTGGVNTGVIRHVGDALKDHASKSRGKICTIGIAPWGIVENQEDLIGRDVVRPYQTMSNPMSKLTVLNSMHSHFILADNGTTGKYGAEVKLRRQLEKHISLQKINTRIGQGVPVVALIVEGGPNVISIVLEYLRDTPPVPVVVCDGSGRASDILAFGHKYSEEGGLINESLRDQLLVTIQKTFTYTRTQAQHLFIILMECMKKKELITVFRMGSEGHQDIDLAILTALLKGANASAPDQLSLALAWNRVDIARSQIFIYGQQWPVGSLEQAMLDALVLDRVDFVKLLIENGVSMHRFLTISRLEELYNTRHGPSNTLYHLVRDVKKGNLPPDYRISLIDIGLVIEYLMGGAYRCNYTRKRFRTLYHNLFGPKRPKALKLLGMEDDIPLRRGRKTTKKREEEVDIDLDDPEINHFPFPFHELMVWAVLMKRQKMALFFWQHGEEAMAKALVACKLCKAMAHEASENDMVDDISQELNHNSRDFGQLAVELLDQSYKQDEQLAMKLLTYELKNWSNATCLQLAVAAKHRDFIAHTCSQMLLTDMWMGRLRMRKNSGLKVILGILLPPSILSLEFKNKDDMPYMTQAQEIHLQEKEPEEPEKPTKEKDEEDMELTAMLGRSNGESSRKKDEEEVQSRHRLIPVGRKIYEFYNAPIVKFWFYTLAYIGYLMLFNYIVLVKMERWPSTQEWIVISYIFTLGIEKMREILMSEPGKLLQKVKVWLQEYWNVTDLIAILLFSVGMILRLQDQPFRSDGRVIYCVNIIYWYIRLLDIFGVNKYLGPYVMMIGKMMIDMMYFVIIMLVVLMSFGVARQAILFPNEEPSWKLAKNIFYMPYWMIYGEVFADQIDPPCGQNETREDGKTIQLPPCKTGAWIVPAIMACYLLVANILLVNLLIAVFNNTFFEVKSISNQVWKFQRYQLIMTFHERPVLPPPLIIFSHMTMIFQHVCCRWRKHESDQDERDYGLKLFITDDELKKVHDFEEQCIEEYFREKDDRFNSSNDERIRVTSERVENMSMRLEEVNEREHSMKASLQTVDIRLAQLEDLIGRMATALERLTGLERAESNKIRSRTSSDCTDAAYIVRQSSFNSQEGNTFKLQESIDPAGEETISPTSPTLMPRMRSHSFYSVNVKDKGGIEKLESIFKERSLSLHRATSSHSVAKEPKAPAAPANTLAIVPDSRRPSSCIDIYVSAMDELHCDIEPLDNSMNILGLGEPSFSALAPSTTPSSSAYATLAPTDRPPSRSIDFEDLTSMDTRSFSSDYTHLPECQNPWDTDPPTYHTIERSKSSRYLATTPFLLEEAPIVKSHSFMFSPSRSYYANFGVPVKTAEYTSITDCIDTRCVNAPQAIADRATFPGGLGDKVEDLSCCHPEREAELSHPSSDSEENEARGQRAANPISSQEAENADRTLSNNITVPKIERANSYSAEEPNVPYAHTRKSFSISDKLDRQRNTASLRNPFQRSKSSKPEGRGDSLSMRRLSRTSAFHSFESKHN

Row | Structure (SMILES) | IC50 [µM]
1 | Cc1oc2ccc(OCc3c(F)cccc3F)cc2c1C(=O)NC1CCNCC1(F)F (stereo not drawn) [Cpd 226, 5-((2,6-difluorobenzyl)oxy)-N-(3,3-difluoropiperidin-4-yl)-2-methylbenzofuran-3-carboxamide] | < 1
2 | Cc1oc2ccc(OCc3cccc(F)c3F)cc2c1C(=O)NC1CCNCC1(F)F (stereo not drawn) [Cpd 227, 5-((2,3-difluorobenzyl)oxy)-N-(3,3-difluoropiperidin-4-yl)-2-methylbenzofuran-3-carboxamide] | < 1
3 | Cc1oc2ccc(OCc3ccccc3)cc2c1C(=O)NC1CN(C(=O)OC(C)(C)C)C1 [Cpd 228, tert-butyl 3-(5-(benzyloxy)-2-methylbenzofuran-3-carboxamido)azetidine-1-carboxylate] | 1 to 20
4 | COCCCN1CCC(NC(=O)c2c(C)oc3ccc(OCc4ccccc4)cc23)CC1 [Cpd 229, 5-(benzyloxy)-N-(1-(3-methoxypropyl)piperidin-4-yl)-2-methylbenzofuran-3-carboxamide] | 1 to 20
5 | Cc1oc2ccc(OCc3ccccc3)cc2c1C(=O)NC1CCN(c2ncccn2)CC1 [Cpd 230, 5-(benzyloxy)-2-methyl-N-(1-(pyrimidin-2-yl)piperidin-4-yl)benzofuran-3-carboxamide] | < 1
6 | Cc1oc2ccc(OCc3cccc(C(F)(F)F)c3)cc2c1C(=O)NC1CCN(C)CC1 [Cpd 232, 2-methyl-N-(1-methylpiperidin-4-yl)-5-((3-(trifluoromethyl)benzyl)oxy)benzofuran-3-carboxamide] | 1 to 20
7 | Cc1oc2ccc(OCc3ccccc3C(F)(F)F)cc2c1C(=O)NC1CCN(C)CC1 [Cpd 233, 2-methyl-N-(1-methylpiperidin-4-yl)-5-((2-(trifluoromethyl)benzyl)oxy)benzofuran-3-carboxamide] | 1 to 20
8 | Cc1oc2ccc(OCc3ccc(C(F)(F)F)cc3)cc2c1C(=O)NC1CCN(C)CC1 [Cpd 234, 2-methyl-N-(1-methylpiperidin-4-yl)-5-((4-(trifluoromethyl)benzyl)oxy)benzofuran-3-carboxamide] | 1 to 20
9 | Cc1oc2ccc(OCc3ccccc3)cc2c1C(=O)N[C@H]1C[C@H]2C(=O)N(C)CC(=O)N2C1 [Cpd 235, 5-(benzyloxy)-2-methyl-N-((7S,8aS)-2-methyl-1,4-dioxooctahydropyrrolo[1,2-a]pyrazin-7-yl)benzofuran-3-carboxamide] | 1 to 20
10 | Cc1oc2ccc(OCc3ccccc3)cc2c1C(=O)N1CCCC(C(=O)NCC(C)C)C1 (stereo not drawn) [Cpd 236, 1-(5-(benzyloxy)-2-methylbenzofuran-3-carbonyl)-N-isobutylpiperidine-3-carboxamide] | > 20
11 | Cc1oc2ccc(OCc3ccccc3)cc2c1C(=O)N1CCC(C(=O)OC(C)(C)C)CC1 [Cpd 237, tert-butyl 1-(5-(benzyloxy)-2-methylbenzofuran-3-carbonyl)piperidine-4-carboxylate] | > 20
12 | Cc1oc2ccc(OCc3ccccc3)cc2c1C(=O)N[C@@H]1CCN(C(=O)OC(C)(C)C)C1 [Cpd 238, tert-butyl (R)-3-(5-(benzyloxy)-2-methylbenzofuran-3-carboxamido)pyrrolidine-1-carboxylate] | > 20
13 | Cc1oc2ccc(OCc3ccccc3)cc2c1C(=O)N[C@H]1CCN(C(=O)OC(C)(C)C)C1 [Cpd 239, tert-butyl (S)-3-(5-(benzyloxy)-2-methylbenzofuran-3-carboxamido)pyrrolidine-1-carboxylate] | 1 to 20
14 | Cc1oc2ccc(OCc3ccccc3C(F)(F)F)cc2c1C(=O)NC1CNCC1(F)F (stereo not drawn) [Cpd 240, N-(4,4-difluoropyrrolidin-3-yl)-2-methyl-5-((2-(trifluoromethyl)benzyl)oxy)benzofuran-3-carboxamide] | < 1
15 | Cc1oc2ccc(OCc3ccccc3)cc2c1C(=O)NC1CCN(Cc2ccccc2)CC1 [Cpd 241, 5-(benzyloxy)-N-(1-benzylpiperidin-4-yl)-2-methylbenzofuran-3-carboxamide] | 1 to 20
16 | Cc1oc2ccc(OCc3ccccc3S(C)(=O)=O)cc2c1C(=O)NC1CCN(C)CC1 [Cpd 242, 2-methyl-N-(1-methylpiperidin-4-yl)-5-((2-(methylsulfonyl)benzyl)oxy)benzofuran-3-carboxamide] | > 20
17 | Cc1oc2ccc(OCc3ccccc3)cc2c1C(=O)N1CCCC(c2nc(C(C)C)no2)C1 (stereo not drawn) [Cpd 243, (5-(benzyloxy)-2-methylbenzofuran-3-yl)(3-(3-isopropyl-1,2,4-oxadiazol-5-yl)piperidin-1-yl)-methanone] | > 20
18 | Cc1oc2ccc(OCc3cccc(OC(F)(F)F)c3)cc2c1C(=O)NC1CCN(C)CC1 [Cpd 244, 2-methyl-N-(1-methylpiperidin-4-yl)-5-((3-(trifluoromethoxy)benzyl)oxy)benzofuran-3-carboxamide] | 1 to 20

Row | Structure (SMILES) | IC50 [µM]
19 | Cc1oc2ccc(OCc3ccccc3N3CCN(C)CC3)cc2c1C(=O)NC1CCNC1=O (stereo not drawn) [Cpd 245, 2-methyl-5-((2-(4-methylpiperazin-1-yl)benzyl)oxy)-N-(2-oxopyrrolidin-3-yl)benzofuran-3-carboxamide] | > 20
20 | Cc1oc2ccc(OCc3ccccc3)cc2c1C(=O)NC1(CNC(=O)OC(C)(C)C)CCC1 [Cpd 246, tert-butyl ((1-(5-(benzyloxy)-2-methylbenzofuran-3-carboxamido)cyclobutyl)methyl)carbamate] | 1 to 20
21 | Cc1oc2ccc(OCc3ccccc3)cc2c1C(=O)NC1CCCN(C(=O)OC(C)(C)C)C1 (stereo not drawn) [Cpd 247, tert-butyl 3-(5-(benzyloxy)-2-methylbenzofuran-3-carboxamido)piperidine-1-carboxylate] | > 20
22 | Cc1oc2ccc(OCc3ccccc3)cc2c1C(=O)N1CCC(NC(=O)OC(C)(C)C)CC1 [Cpd 248, tert-butyl (1-(5-(benzyloxy)-2-methylbenzofuran-3-carbonyl)piperidin-4-yl)carbamate] | > 20
23 | Cc1oc2ccc(OCc3ccccc3)cc2c1C(=O)NC1CCN(C(=O)OC(C)(C)C)CC1 [Cpd 249, tert-butyl 4-(5-(benzyloxy)-2-methylbenzofuran-3-carboxamido)piperidine-1-carboxylate] | 1 to 20
24 | Cc1oc2ccc(OCc3ccccc3OCCN(C)C)cc2c1C(=O)NC1CCN(C)CC1 [Cpd 250, 5-((2-(2-(dimethylamino)ethoxy)benzyl)oxy)-2-methyl-N-(1-methylpiperidin-4-yl)benzofuran-3-carboxamide] | > 20
25 | Cc1oc2ccc(OCc3ccccc3)cc2c1C(=O)NC1CCN(C(=O)OC(C)(C)C)C(C)C1 (stereo not drawn) [Cpd 252, tert-butyl cis-4-(5-(benzyloxy)-2-methylbenzofuran-3-carboxamido)-2-methylpiperidine-1-carboxylate] | 1 to 20
26 | Cc1oc2ccc(OCc3ccccc3)cc2c1C(=O)NCC1CCN(C(=O)OC(C)(C)C)CC1 [Cpd 253, tert-butyl 4-((5-(benzyloxy)-2-methylbenzofuran-3-carboxamido)methyl)piperidine-1-carboxylate] | > 20
27 | Cc1oc2ccc(OCc3cccc(F)c3F)cc2c1C(=O)N[C@H]1CCN(C(=O)OC(C)(C)C)C1 [Cpd 256, tert-butyl (S)-3-(5-((2,3-difluorobenzyl)oxy)-2-methylbenzofuran-3-carboxamido)pyrrolidine-1-carboxylate] | 1 to 20
28 | Cc1oc2ccc(OCc3c(F)cccc3F)cc2c1C(=O)N[C@H]1CCN(C(=O)OC(C)(C)C)C1 [Cpd 257, tert-butyl (S)-3-(5-((2,6-difluorobenzyl)oxy)-2-methylbenzofuran-3-carboxamido)pyrrolidine-1-carboxylate] | 1 to 20
29 | Cc1oc2ccc(OCc3ccccc3)cc2c1C(=O)N[C@H]1CC2CC[C@H](C1)N2C(=O)OC(C)(C)C [Cpd 258, tert-butyl (1R,3s,5S)-3-(5-(benzyloxy)-2-methylbenzofuran-3-carboxamido)-8-azabicyclo-[3.2.1]octane-8-carboxylate] | < 1
30 | Cc1oc2ccc(OCc3ccccc3)cc2c1C(=O)N[C@H]1C[C@@H]2CN(C(=O)OC(C)(C)C)C[C@@H]2C1 [Cpd 259, tert-butyl trans-5-(5-(benzyloxy)-2-methylbenzofuran-3-carboxamido)hexahydrocyclopenta-[c]pyrrole-2(1H)-carboxylate] | 1 to 20
31 | Cc1oc2ccc(OCc3ccccc3COC3CCCCO3)cc2c1C(=O)NC1CCN(C)CC1 (stereo not drawn) [Cpd 260, 2-methyl-N-(1-methylpiperidin-4-yl)-5-((2-(((tetrahydro-2H-pyran-2-yl)oxy)methyl)benzyl)oxy)benzofuran-3-carboxamide] | 1 to 20
32 | Cc1oc2ccc(OCc3cccc(CNC(=O)OC(C)(C)C)c3)cc2c1C(=O)NC1CCNC1=O (stereo not drawn) [Cpd 261, tert-butyl (3-(((2-methyl-3-((2-oxopyrrolidin-3-yl)carbamoyl)benzofuran-5-yl)oxy)methyl)-benzyl)carbamate] | > 20
33 | Cc1oc2ccc(OCc3ccccc3)cc2c1C(=O)NC1(CO)CCN(C(=O)OC(C)(C)C)CC1 [Cpd 262, tert-butyl 4-(5-(benzyloxy)-2-methylbenzofuran-3-carboxamido)-4-(hydroxymethyl)piperidine-1-carboxylate] | 1 to 20
34 | Cc1oc2ccc(OCc3ccccc3)cc2c1C(=O)NC1CCN(C(=O)OC(C)(C)C)CC1(F)F (stereo not drawn) [Cpd 263, tert-butyl 4-(5-(benzyloxy)-2-methylbenzofuran-3-carboxamido)-3,3-difluoropiperidine-1-carboxylate] | < 1
35 | Cc1oc2ccc(OCc3ccccc3)cc2c1C(=O)N[C@@H]1C[C@H]2COC[C@@H](C1)N2C(=O)OC(C)(C)C [Cpd 265, tert-butyl (1R,5S,7r)-7-(5-(benzyloxy)-2-methylbenzofuran-3-carboxamido)-3-oxa-9-azabicyclo-[3.3.1]nonane-9-carboxylate] | > 20
36 | Cc1oc2ccc(OCc3ccccc3F)cc2c1C(=O)NC1(C(N)=O)COC1 [Cpd 309, N-(3-carbamoyloxetan-3-yl)-5-((2-fluorobenzyl)oxy)-2-methylbenzofuran-3-carboxamide] | < 1

Source: patent US20230391739A1, “ARYL DERIVATIVES FOR TREATING TRPM3 MEDIATED DISORDERS” (Katholieke Universiteit Leuven, priority 2020, published 2023)
